Assay results: patent EP0508425A1, “Bicyclic amides as inhibitors of acyl-coenzyme a: cholesterol acyl transferase” (SCHERING CORPORATION, priority 1991, dated 1992)

Columns and labels:
Hyperlipidemic Hamster = experiment: In Vivo Assay of Hypolipidemic Agents Using the Hyperlipidemic Hamster; design: species or system Hamsters; conditions: oral gavage once daily, seven days, versus control
Description: In Vivo Assay of Hypolipidemic Agents Using the Hyperlipidemic Hamster
Hamsters are separated into groups of six and given a control cholesterol diet (Purina Chow #5001 containing 0.5% cholesterol) for seven days. Diet consumption is monitored to determine dietary cholesterol exposure in the face of test compounds. The animals are dosed with the test compound once daily beginning with the initiaton of diet. Dosing is by oral gavage of 0.2 mL of corn oil alone (control group) or solution (or suspension) of test compound in corn oil. All animals moribund or in poor physical condition are euthanized. After seven days, the animals are anesthetized by IM injection of ketamine and sacrificed by decapitation. Blood is collected into vacutainer tubes containing EDTA for plasma lipid analysis and the liver excised for tissue lipid analysis. Data is reported as percent reduction of lipid versus control.

ACAT = ACAT Assay (in vitro); type: biochemical; conditions: 10 µM test compound; rat liver microsomes
Description: This assay measures the activity of ACAT by measuring the ACAT-mediated transfer of tritiated oleic acid from acyl-CoA to cholesterol to give labelled cholesterol oleate. Rat liver microsomes are used as the source of ACAT. Assays are performed in round bottom microtiterplates using a total incubation volume of 50 µL. Each incubation well receives 10 µl assay buffer (0.5M KHPO₄, 10 µM dithiothreitol, pH 7.4), 7.5 µL of 40 mg/mL BSA (Bovine Serum Albumin) and 12.5 µg of microsomal protein. The test compound (in sufficient amount to bring the final concentration to from 0.1 to 25 µM), reference compound, or vehicle control is added and the final volume brought to 47 µL. The microtiterplate is then floated on the surface of a 37°C water bath for fifteen minutes. Incubations are started by the addition of 3 µL ³H-acyl CoA (1µCi/well, final concentration of 10 µM acyl CoA). The plate is then returned to the water bath for 15 minutes. The incubations are then terminated by application of 15 µL from each incubation to individual lanes on a thin layer plate (Silica Gel GF 20 x 20 cm). Standards are applied to several lanes so that the cholesterol ester band can be identified. After drying, the plates are eluted with 90:10:1 petroleum ether:ether:HOAc. The standards are visualized via iodine vapor, and the regions corresponding to cholesterol ester are scraped into 7 mL scintillation vials. 4 mL of scintillant are added to each vial, and the radioactivity quantified. Background count is determined by the boiled controls. Full activity is determined by activity in the presence of vehicle. The percent inhibition is calculated by subtracting the background from both control and test samples, and the test value is calculated as a percentage of the control. For IC₅₀ determinations, the inhibition is plotted against drug doses on a log scale and the concentration at which 50% inhibition is obtained is determined.

Row | Structure (SMILES) | % Reduction in cholesteryl esters (dose in mpk) (Hyperlipidemic Hamster; dose 10 mpk) | ACAT % Inhibition dose = 10 µM (ACAT) | % Reduction in cholesteryl esters (dose in mpk) (Hyperlipidemic Hamster; dose 50 mpk) | % Reduction in cholesteryl esters (dose in mpk) (Hyperlipidemic Hamster; dose 25 mpk)
1 | Nc1cccc([C@H]2Cc3ccccc3[C@H]2NC(=O)C(c2ccccc2)c2ccccc2)c1 (relative stereo) [Example 5A, cis-N-[2-(3'-aminophenyl)-indanyl]-α-phenylbenzeneacetamide] | 0 (10) % | 95% |  | 
2 | O=C(N[C@@H]1c2ccccc2C[C@@H]1c1ccc(O)c(Cl)c1)C(c1ccccc1)c1ccccc1 (relative stereo) [Example 8, cis-N-[2-(3'-chloro-4'-hydroxyphenyl)-indanyl]-α-phenylbenzeneacetamide] |  | 99% | -40 (50) % | 
3 | COc1ccc([C@H]2CCc3ccccc3[C@H]2NC(=O)C(c2ccccc2)c2ccccc2)cc1 (relative stereo) [Example 1, cis-N-[-2-(4'-methoxyphenyl)-1,2,3,4-tetrahydronaphthalen-1-yl]-α-phenylbenzeneacetamide] |  |  | 0 (50) % | 
4 | COc1ccc([C@@H]2CCc3ccccc3[C@H]2NC(=O)N(c2ccccc2)c2ccccc2)cc1 (relative stereo) [Example 6, trans-N'-[2-(4'-methoxyphenyl)-1,2,3,4-tetrahydronaphthalen-1-yl]-N,N-diphenylurea] |  | 97% | -16 (50) % | 
5 | CCCCCCCC/C=C\CCCCCCCC(=O)N[C@@H]1c2ccccc2CC[C@H]1c1ccc(O)cc1 (relative stereo) [Example 4, trans-N-[2-(4'-hydroxyphenyl)-1,2,3,4-tetrahydronaphth-1-yl]oleamide] |  | 94% | 0 (50) % | 
6 | Cc1cc([C@H]2Cc3ccccc3[C@H]2NC(=O)C(c2ccccc2)c2ccccc2)cc(C)c1O (relative stereo) [Example 9A, (+)-cis-N-[2-(3',5'-dimethyl-4'-hydroxyphenyl)indanyl]-α-phenylbenzeneacetamide] |  | 97% | -60 (50) % | 
7 | O=C(N[C@@H]1c2ccccc2C[C@@H]1c1cc(Cl)c(O)c(Cl)c1)C(c1ccccc1)c1ccccc1 (relative stereo) [Example 8A, cis-N-[2-(3',5'-dichloro-4'-hydroxyphenyl)indanyl]-α-phenylbenzeneacetamide] |  | 99% | -14 (50) % | 
8 | Nc1ccc([C@@H]2Cc3ccccc3[C@H]2NC(=O)C(c2ccccc2)c2ccccc2)cc1 (relative stereo) [Example 5, trans-N-[2-(4'-aminophenyl)indanyl]-α-phenylbenzeneacetamide] |  | 94% |  | 
9 | Cc1cc([C@H]2Cc3ccccc3[C@H]2NC(=O)C(c2ccccc2)c2ccccc2)ccc1O (relative stereo) [Example 9, (+)-cis-N-[2-[4'-hydroxy-3'-methylphenyl)indanyl]-α-phenylbenzeneacetamide] |  | 98% | -66 (50) % | 
10 | O=C(N[C@@H]1c2ccccc2C[C@@H]1c1ccc(O)c(Br)c1)C(c1ccccc1)c1ccccc1 (relative stereo) [Example 7, (+)-cis-N-[2-(3'-bromo-4'-hydroxyphenyl)indanyl]-α-phenylbenzeneacetamide] |  | 100% | -40 (50) % | 
11 | O=C(N[C@@H]1c2ccccc2C[C@@H]1c1ccc(O)cc1)C(c1ccccc1)c1ccccc1 (relative stereo) [Example 3, cis-N-[2-(4'-hydroxyphenyl)indanyl]-α-phenylbenzeneacetamide] | -71% | 99% | -89% | -87.5%
12 | COc1ccc([C@H]2Cc3ccccc3[C@H]2NC(=O)C(c2ccccc2)c2ccccc2)cc1 (relative stereo) [Example 2, cis-N-[2-(4'-methoxyphenyl)indanyl]-α-phenylbenzeneacetamide] |  | 96% | -17 (50) % | 
